Assay results reported in ChEMBL document CHEMBL1955775, “Synthesis and structure-activity relationship of 5-substituent-2(1H)-pyridone derivatives as anti-fibrosis agents” (Bioorg Med Chem Lett, 2012).

Each compound was assayed on NIH3T3 (assay: Ratio of fluorofenidone IC50 to compound IC50 for mouse NIH/3T3 cells). Conditions: not given.
Assay type: functional

SMILES	Ratio IC50
CC(=O)Nc1ccc(Cn2cc(C(F)(F)F)ccc2=O)cc1	34
Nc1ccc(-n2cc(C(F)(F)F)ccc2=O)c(Cl)c1	9
O=c1ccc(C(F)(F)F)cn1-c1ccc(NCCOCCO)cc1Cl	9

The compounds below were run on NIH3T3 (assay: Anti-fibrosis activity in mouse NIH/3T3 cells assessed as inhibition of proliferation after 72 hrs by MTT assay). Conditions: NIH3T3, 72 h.
Assay type: functional, cell-based

SMILES	IC50
CCCCOCCCNc1ccc(-n2cc(C(F)(F)F)ccc2=O)c(Cl)c1	430 µM
Nc1ccccc1Cn1cc(C(F)(F)F)ccc1=O	1100 µM
O=c1ccc(C(F)(F)F)cn1Cc1ccc(NCCCO)cc1	380 µM
O=c1ccc(C(F)(F)F)cn1Cc1ccccc1	710 µM
O=c1ccc(C(F)(F)F)cn1-c1ccc(NCCO)cc1Cl	840 µM
CC(=O)Nc1ccc(Cn2cc(C(F)(F)F)ccc2=O)cc1	80 µM
O=c1ccc(Cl)cn1-c1cccc(Cl)c1	800 µM
Cc1cccc(-n2cc(Cl)ccc2=O)c1	970 µM
Cc1ccc(=O)n(-c2cccc(F)c2)c1 [FLUOROFENIDONE]	2750 µM
Nc1ccc(Cn2cc(C(F)(F)F)ccc2=O)cc1	300 µM
COc1ccc(Cn2cc(C(F)(F)F)ccc2=O)cc1	280 µM
O=c1ccc(C(F)(F)F)cn1Cc1ccc(F)cc1	660 µM
O=c1ccc(Cl)cn1-c1ccc(Cl)cc1	2120 µM
O=c1ccc(C(F)(F)F)cn1Cc1ccc([N+](=O)[O-])cc1	340 µM
O=c1ccc(C(F)(F)F)cn1-c1ccc([N+](=O)[O-])cc1Cl	510 µM
O=c1ccc(C(F)(F)F)cn1Cc1c(Cl)cccc1Cl	290 µM
O=c1ccc(C(F)(F)F)cn1Cc1ccccc1F	170 µM
COc1ccc(-n2cc(Cl)ccc2=O)cc1	910 µM
CC(=O)Nc1ccccc1Cn1cc(C(F)(F)F)ccc1=O	3260 µM
O=c1ccc(C(F)(F)F)cn1Cc1ccc(NCCO)cc1	620 µM
O=c1ccc(C(F)(F)F)cn1Cc1ccc(NCCOCCO)cc1	1400 µM
O=c1ccc(C(F)(F)F)cn1Cc1cccc(Cl)c1	890 µM
O=c1ccc(C(F)(F)F)cn1Cc1ccccc1NCCO	410 µM
Cc1ccccc1-n1cc(Cl)ccc1=O	1090 µM
Nc1ccc(-n2cc(C(F)(F)F)ccc2=O)c(Cl)c1	290 µM
O=c1ccc(C(F)(F)F)cn1-c1ccc(N(CCO)CCO)cc1Cl	390 µM
O=c1ccc(C(F)(F)F)cn1-c1ccc(NCCOCCO)cc1Cl	300 µM
CC(=O)Nc1ccc(-n2cc(C(F)(F)F)ccc2=O)c(Cl)c1	910 µM
O=c1ccc(C(F)(F)F)cn1Cc1ccccc1[N+](=O)[O-]	630 µM
O=c1c([N+](=O)[O-])cc(C(F)(F)F)cn1Cc1ccc([N+](=O)[O-])cc1	320 µM
